Data taken from ChEMBL document CHEMBL2375323, “Cu(OTf)2 catalyzed three component reaction: efficient synthesis of spiro[indoline-3,4'-pyrano[3,2-b]pyran derivatives and their anticancer potency towards A549 human lung cancer cell lines” (Bioorg Med Chem Lett, 2013).

The compounds below were run on A549 (assay: Cytotoxicity against human A549 cells assessed as growth inhibition by MTT assay).
Type: functional, cell-based
In the case of `N#CC1=C(N)Oc2c(oc(CO)cc2=O)C12C(=O)Nc1ccc(Cl)cc12` (centres undefined), the IC50 is reported as 51.4 µM. `CN1C(=O)C2(C(C#N)=C(N)Oc3c2oc(CO)cc3=O)c2ccccc21` (centres undefined) showed an IC50 of 51.1 µM. With `CCOC(=O)C1=C(N)Oc2c(oc(CO)cc2=O)C12C(=O)Nc1ccccc12` (centres undefined) the IC50 was greater than 200 µM. Work on `COC(=O)C1=C(N)Oc2c(oc(CO)cc2=O)C12C(=O)Nc1ccccc12` (centres undefined) yielded an IC50 of 56.2 µM. With `COC(=O)C1=C(N)Oc2c(oc(CO)cc2=O)C12C(=O)Nc1ccc([N+](=O)[O-])cc12` (centres undefined) the IC50 was 55.9 µM. For `COC(=O)C1=C(N)Oc2c(oc(CO)cc2=O)C12C(=O)Nc1ccc(C)cc12` (centres undefined), the IC50 was 62.8 µM. For `COC(=O)C1=C(N)Oc2c(oc(CO)cc2=O)C12C(=O)N(Cc1ccccc1)c1ccccc12` (centres undefined), the IC50 was 55.1 µM. In the case of `CCOC(=O)C1=C(N)Oc2c(oc(CO)cc2=O)C12C(=O)Nc1ccc(Cl)cc12` (centres undefined), the IC50 is reported as 53.1 µM. Compound `CCOC(=O)C1=C(N)Oc2c(oc(CO)cc2=O)C12C(=O)Nc1ccc(Br)cc12` (centres undefined) has an IC50 of 52.8 µM. `CCOC(=O)C1=C(N)Oc2c(oc(CO)cc2=O)C12C(=O)Nc1ccc(C)cc12` (centres undefined) showed an IC50 of 52.9 µM. With `CCOC(=O)C1=C(N)Oc2c(oc(CO)cc2=O)C12C(=O)N(C)c1ccccc12` (centres undefined) the IC50 was 55.8 µM. With `C=CCN1C(=O)C2(C(C(=O)OCC)=C(N)Oc3c2oc(CO)cc3=O)c2ccccc21` (centres undefined) the IC50 was 54.6 µM. `N#CC1=C(N)Oc2c(oc(CO)cc2=O)C12C(=O)Nc1ccccc12` (centres undefined) was tested, and the IC50 was 52.8 µM. `N#CC1=C(N)Oc2c(oc(CO)cc2=O)C12C(=O)Nc1ccc(F)cc12` (centres undefined) gave an IC50 greater than 200 µM. `N#CC1=C(N)Oc2c(oc(CO)cc2=O)C12C(=O)Nc1ccc(Br)cc12` (centres undefined) was tested, and the IC50 was greater than 200 µM. For `C=CCN1C(=O)C2(C(C#N)=C(N)Oc3c2oc(CO)cc3=O)c2ccccc21` (centres undefined), the IC50 was 59.4 µM. In the case of `C#CCN1C(=O)C2(C(C#N)=C(N)Oc3c2oc(CO)cc3=O)c2ccccc21` (centres undefined), the IC50 is reported as greater than 200 µM. `N#CC1=C(N)Oc2c(oc(CO)cc2=O)C12C(=O)N(Cc1ccccc1)c1ccccc12` (centres undefined) showed an IC50 greater than 200 µM. With `CCOC(=O)C1=C(N)Oc2c(oc(CO)cc2=O)C12C(=O)Nc1ccc(F)cc12` (centres undefined) the IC50 was greater than 200 µM.
